The text below walks through data of the supplement of paper PMC10307832.

Assay in all cases: relative viability (nuclei count vs DMSO), 5 days (fraction); higher = more cells survive
Compound in one assay: CC(C)CCN1c2nc(Nc3cc(F)c(O)c(F)c3)ncc2N(C)C(=O)C1C [BI-D1870]
In a few lines: (§1)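 Vehicle-anchored 1536-well plates of lung cancer cell lines, held overnight at 37 °C, were pinned with five library-drug doses (not always all listed) spaced by √10. No medium change followed over the next 5 days, after which the cells were fixed, permeabilised and Hoechst-stained together and imaged at 4×. Nuclei were counted with MetaXpress, and viability is treated-well nuclei over vehicle-well nuclei, taken as a median across plates. Plates passed with control CV below 25% and at least one doubling.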

Compound in the next assay: O=c1ncccn1[C@@H]1O[C@H](CO)[C@@H](O)[C@H]1O [Zebularine]
In outline:
as §1

Compound in the assay “Zebularine + Navitoclax”: O=c1ncccn1[C@@H]1O[C@H](CO)[C@@H](O)[C@H]1O [Zebularine] + CC1(C)CCC(c2ccc(Cl)cc2)=C(CN2CCN(c3ccc(C(=O)NS(=O)(=O)c4ccc(N[C@H](CCN5CCOCC5)CSc5ccccc5)c(S(=O)(=O)C(F)(F)F)c4)cc3)CC2)C1 [Navitoclax] (partner 0.5 µM)
In outline:
(§2)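 Five library-drug doses in √10 steps were combined with a fixed anchor-drug dose, or a single drug was given alone, by pin tool to lung cancer cell lines in 1536-well plates the day after seeding. Nuclei were stained and counted after 5 days. Relative viability is the nuclei count in treated wells over that in vehicle wells, taken as the median of duplicate plates.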

Compound in the assay “BI-D1870 + Trametinib”: CC(C)CCN1c2nc(Nc3cc(F)c(O)c(F)c3)ncc2N(C)C(=O)C1C [BI-D1870] + CC(=O)Nc1cccc(-n2c(=O)n(C3CC3)c(=O)c3c(Nc4ccc(I)cc4F)n(C)c(=O)c(C)c32)c1 [Trametinib] (partner 0.02 µM)
In outline: as §2

For the cell line LCLC-97TM1, the relative viability was found to be 1.3 with BI-D1870 (0.04 µM); 0.978 with BI-D1870 (0.1265 µM); 0.756 with BI-D1870 (0.4 µM); 1.1 with BI-D1870 (1.265 µM); 0.841 in the assay with BI-D1870 (4 µM); 1.03 in the assay with Zebularine (1 µM). Besides, the relative viability in the assay with Zebularine (3.162 µM) stood at 0.913; in the assay with Zebularine (10 µM), 0.652; with Zebularine (31.62 µM), 0.335; with Zebularine (100 µM), 0.143; with Zebularine + Navitoclax (first compound 1 µM) it was 0.422; with Zebularine + Navitoclax (first compound 3.162 µM), 0.351. Further, the relative viability is 0.238 with Zebularine + Navitoclax (first compound 10 µM); 0.149 in the assay with Zebularine + Navitoclax (first compound 31.62 µM); 0.143 in the assay with Zebularine + Navitoclax (first compound 100 µM); 0.214 in the assay with BI-D1870 + Trametinib (first compound 0.04 µM); 0.181 with BI-D1870 + Trametinib (first compound 0.1265 µM); 0.174 in the assay with BI-D1870 + Trametinib (first compound 0.4 µM). For the same cell line, the relative viability in the assay with BI-D1870 + Trametinib (first compound 1.265 µM) was determined as 0.221; in the assay with BI-D1870 + Trametinib (first compound 4 µM), 0.146.
For EPLC-272H, the relative viability with BI-D1870 (0.04 µM) stood at 1.12; with BI-D1870 (0.1265 µM), 0.802; with BI-D1870 (0.4 µM) it was 0.926; in the assay with BI-D1870 (1.265 µM), 0.821; with BI-D1870 (4 µM) it was 0.627; with Zebularine (1 µM), 1.14. In addition, the relative viability in the assay with Zebularine (3.162 µM) was 0.577; with Zebularine (10 µM), 0.558; in the assay with Zebularine (31.62 µM), 0.811; in the assay with Zebularine (100 µM) it was 0.724; in the assay with Zebularine + Navitoclax (first compound 1 µM) it was 1.45; with Zebularine + Navitoclax (first compound 31.62 µM), 1.26. Moreover, the relative viability amounted to 0.639 with Zebularine + Navitoclax (first compound 100 µM); 0.292 in the assay with BI-D1870 + Trametinib (first compound 0.04 µM); 0.258 with BI-D1870 + Trametinib (first compound 0.1265 µM); 0.302 in the assay with BI-D1870 + Trametinib (first compound 0.4 µM); 0.298 with BI-D1870 + Trametinib (first compound 1.265 µM); 0.306 in the assay with BI-D1870 + Trametinib (first compound 4 µM).
Consider NCI-H1915, for which the relative viability with BI-D1870 (0.04 µM) came to 1.09; with BI-D1870 (0.1265 µM), 0.921; with BI-D1870 (0.4 µM), 0.969; with BI-D1870 (1.265 µM) it was 0.988; with BI-D1870 (4 µM), 0.763; with Zebularine (1 µM) it was 1.04. For the same cell line, the relative viability with Zebularine (3.162 µM) came out at 0.932; with Zebularine (10 µM) it was 0.821; with Zebularine (31.62 µM), 1.08; in the assay with Zebularine (100 µM), 1.03; with Zebularine + Navitoclax (first compound 1 µM), 0.816; in the assay with Zebularine + Navitoclax (first compound 3.162 µM) it was 0.769. In addition, the relative viability with Zebularine + Navitoclax (first compound 10 µM) was 0.565; in the assay with Zebularine + Navitoclax (first compound 31.62 µM), 0.872; in the assay with Zebularine + Navitoclax (first compound 100 µM) it was 0.771; in the assay with BI-D1870 + Trametinib (first compound 0.04 µM) it was 0.332; with BI-D1870 + Trametinib (first compound 0.1265 µM), 0.27; with BI-D1870 + Trametinib (first compound 0.4 µM), 0.27. Besides, the relative viability with BI-D1870 + Trametinib (first compound 1.265 µM) is 0.254; in the assay with BI-D1870 + Trametinib (first compound 4 µM), 0.249.
Take NCI-H2405: the relative viability is 1.07 with BI-D1870 (0.04 µM); 0.985 with BI-D1870 (0.1265 µM); 1.03 with BI-D1870 (0.4 µM); 1.07 with BI-D1870 (1.265 µM); 0.909 with BI-D1870 (4 µM); 1.02 in the assay with Zebularine (1 µM). Besides, the relative viability in the assay with Zebularine (3.162 µM) turned out to be 0.992; with Zebularine (10 µM), 0.871; with Zebularine (31.62 µM) it was 0.968; with Zebularine (100 µM), 0.726; with Zebularine + Navitoclax (first compound 1 µM), 0.913; in the assay with Zebularine + Navitoclax (first compound 3.162 µM), 0.831. For the same cell line, the relative viability with Zebularine + Navitoclax (first compound 10 µM) came out at 0.798; in the assay with Zebularine + Navitoclax (first compound 31.62 µM) it was 0.833; in the assay with Zebularine + Navitoclax (first compound 100 µM), 0.61; in the assay with BI-D1870 + Trametinib (first compound 0.04 µM) it was 0.683; with BI-D1870 + Trametinib (first compound 0.1265 µM) it was 0.595; in the assay with BI-D1870 + Trametinib (first compound 0.4 µM), 0.586. The relative viability in the assay with BI-D1870 + Trametinib (first compound 1.265 µM) stood at 0.67; with BI-D1870 + Trametinib (first compound 4 µM) it was 0.601.
On to NCI-H322M, for which the relative viability with BI-D1870 (0.04 µM) amounted to 0.964; in the assay with BI-D1870 (0.1265 µM), 0.907; with BI-D1870 (0.4 µM), 0.82; with BI-D1870 (1.265 µM), 0.728; with BI-D1870 (4 µM) it was 0.748; in the assay with Zebularine (1 µM), 0.98. Moreover, the relative viability is 0.928 in the assay with Zebularine (3.162 µM); 0.784 with Zebularine (10 µM); 0.888 with Zebularine (31.62 µM); 0.673 in the assay with Zebularine (100 µM); 1.37 in the assay with Zebularine + Navitoclax (first compound 1 µM); 1.19 with Zebularine + Navitoclax (first compound 3.162 µM). Also, the relative viability was determined as 1.13 with Zebularine + Navitoclax (first compound 10 µM); 0.917 with Zebularine + Navitoclax (first compound 31.62 µM); 0.82 with Zebularine + Navitoclax (first compound 100 µM); 0.437 in the assay with BI-D1870 + Trametinib (first compound 0.04 µM); 0.537 with BI-D1870 + Trametinib (first compound 0.1265 µM); 0.524 with BI-D1870 + Trametinib (first compound 0.4 µM). Also, the relative viability was determined as 0.508 with BI-D1870 + Trametinib (first compound 1.265 µM) and 0.495 in the assay with BI-D1870 + Trametinib (first compound 4 µM).
